This is an account of results in patent publication US20260165956A1, “IN VIVO TARGETING OF THERAPEUTIC MOLECULES TO THE RETINA VIA THE OPTICAL SYSTEM OF THE EYE” (SEMMELWEIS EGYETEM, priority 2022, published 2026).

Several values for one entry are separate records, joined by “and”; a condition that tells them apart may be missing. Equal entries are not always repeated. Entries after “also recorded” stand apart in the source; their conditions may differ. Where two headings read alike, the source gives them in different places.

The subject of data set [1] is human retinal microvascular endothelial cells (HRMEC). The experiment in a line: tubulogenesis (in vitro angiogenesis) assay, number of meshes. It counts as cell-based. Conditions: for IC50 / Dark/Light: HRMEC tubulogenesis; for Dark/Light: ratio of IC50 dark to IC50 light. The source says:
These cells preserve their endothelial nature, and when cultured on an appropriate extracellular matrix, they spontaneously form a network that corresponds to a network of capillaries. Images of such networks taken with a microscope can be quantified, and several parameters (such as the number of segments, number of closed loops, number of junction points) of the network can be quantified and used as a parameter describing the angiogenesis in vitro [Staton et al., 2009].
The inventors have applied their proprietary azidated inhibitors described in the present patent in an ascending series of concentrations. For all the said azidated inhibitors, the in vitro angiogenesis experiments were carried out both in complete darkness and in defined illumination conditions. The number of closed loops (number of meshes) was identified using an image recognition algorithm, and an IC50 curve was fitted onto the number of meshes plotted against substance concentration. […] These experiments thus provided further proof, that light increases the inhibitory potential of the novel azidated compounds described in the present patent.
In vitro angiogenesis (hereinafter referred to as “tubulogenesis”) mimicks several features of angiogenetic processes observed in vivo in vertebrate animals [Staton et al., 2009] and is based on the VEGF-dependent self-organizing capacity of endothelial cells via which tube-like structures emerge that share many properties with in vivo observed blood vessels. Therefore, the inhibitory potential of the newly synthetized molecules of the present invention was also assessed in tubulogenesis assay using human retinal microvascular endothelial cells (HRMEC) derived from post mortem human donors. When seeded onto a collagen and laminin containing matrix, HRMEC spontaneously form a two-dimensional blood-vessel-like network displaying several quantifiable features that can be used to measure angiogenic potential [Staton et al., 2009]. The newly synthetized, PMO-containing VEGFR inhibitors were added to the culture medium in increasing concentrations to test whether they can inhibit the spontaneous formation of the network from HRMEC. The increasing concentrations allowed the inventors to calculate the IC50 values for each inhibitor molecule. The results of these experiments (table 2.) have shown that the new, PMO-containing azidated inhibitors were capable of inhibiting the tubulogenesis. Furthermore, in the presence of light, the inhibition was stronger than in the dark, providing evidence for the photoactivation and the concomitant covalent binding of the azidated inhibitors to their target receptors.
To test the inhibitory effect of the compounds with light and without light on tubulogenesis [Staton et al., 2009], we have used human retinal microvascular endothelial cells (HRMEC) from Cell Systems (Kirkland, WA 98033, cat. N^o: ACBRI 181). VEGF165 (Invitrogen) was only used as a positive control in these experiments, otherwise tubulogenesis relied on endogenous VEGF produced by the culture.
Assays were performed in a 96-well cell culture plate (Biologix). The basement membrane matrix Geltrex (Invitrogen) was thawed on ice overnight before use. 50 μl Geltrex was added to each well with a chilled pipette, then the plate was centrifuged at 2000 rpm for 10 min at 4° C. Subsequently the matrix was let solidify in a humidified incubator at 37° C. for at least 30 minutes. Before seeding, HRMEC cells were treated with compounds (0.1 nM-10 μM) in EBM-2 medium (Lonza) in the dark. After 5 minutes, 100 μl of suspension of treated cells was seeded into each Geltrex-coated well of the plate at a density of 10^3 cells/well and then exposed to light treatment (cold white LED light) for 10 min at 37° C. and 5% CO2 or kept in the dark (control plate) in the incubator during light treatment. Subsequently both the irradiated and the control plates were left in the incubator for 12 hours so that the tubulogenesis can proceed. […]

Data set [2] deals with T1, VEGFR2 (Homo sapiens, UniProt P35968).
T1 construct: host or cells: HEK293 (VEGFR2/NFAT Reporter recombinant cell line)
The experiment in a line: VEGFR2/NFAT Reporter HEK293 luciferase assay of VEGF signaling. It counts as cell-based. Conditions: VEGFR2-HEK cells; for IC50: 20 ng/ml VEGF165; for Dark/Light: ratio of IC50 dark to IC50 light. How it is done:
We have cultured the cells and conducted the measurements according to the manufacturer's instructions.
On the day preceding the measurement, 40 000 recombinant HEK cells were seeded into each well of a 96 well plate in a way that the experiments could be conducted in triplicates. […] For the conditions requiring irradiation, the plate was placed under a cold white LED light source within the incubator (37° C., 5% CO2) for the first 10 minutes of the 1-hour-long incubation with the inhibitors to imitate day-light, while the other plate was kept in the dark (also at 37° C., 5% CO2). Following the pre-incubation with inhibitors we treated the cells for 4 hours with VEGF without removing the inhibitors. For this purpose we used 20 ng/ml of commercially available human VEGF165 (Sf9 derived, from BPS BioScience Inc., Cat. No.: 91001-1) added directly into the cell-culture medium.
The IC50 values were calculated using the GraphPad Prism software.

The test system of data set [3] is neovascular AMD. The settings on record: oral, phase I, patients; cited from earlier work.
In data set [4] the test system is neovascular AMD. The settings on record: oral, phase II, trial prematurely stopped; cited from earlier work.
The mark [5] stands for this setting: cold white LED light for the first 10 min of 1 h pre-incubation, read-out: IC50 Light.
Where [6] appears, read: kept in the dark, read-out: IC50 Dark.
Setting [7] is: Homo sapiens, HRMEC, 10 min, cold white LED light 10 min, no Ko-143, read-out: IC50 Light.
The mark [8] stands for this setting: Homo sapiens, HRMEC, dark, no Ko-143, read-out: IC50 Dark.

T1 sequence (P35968 20-1356): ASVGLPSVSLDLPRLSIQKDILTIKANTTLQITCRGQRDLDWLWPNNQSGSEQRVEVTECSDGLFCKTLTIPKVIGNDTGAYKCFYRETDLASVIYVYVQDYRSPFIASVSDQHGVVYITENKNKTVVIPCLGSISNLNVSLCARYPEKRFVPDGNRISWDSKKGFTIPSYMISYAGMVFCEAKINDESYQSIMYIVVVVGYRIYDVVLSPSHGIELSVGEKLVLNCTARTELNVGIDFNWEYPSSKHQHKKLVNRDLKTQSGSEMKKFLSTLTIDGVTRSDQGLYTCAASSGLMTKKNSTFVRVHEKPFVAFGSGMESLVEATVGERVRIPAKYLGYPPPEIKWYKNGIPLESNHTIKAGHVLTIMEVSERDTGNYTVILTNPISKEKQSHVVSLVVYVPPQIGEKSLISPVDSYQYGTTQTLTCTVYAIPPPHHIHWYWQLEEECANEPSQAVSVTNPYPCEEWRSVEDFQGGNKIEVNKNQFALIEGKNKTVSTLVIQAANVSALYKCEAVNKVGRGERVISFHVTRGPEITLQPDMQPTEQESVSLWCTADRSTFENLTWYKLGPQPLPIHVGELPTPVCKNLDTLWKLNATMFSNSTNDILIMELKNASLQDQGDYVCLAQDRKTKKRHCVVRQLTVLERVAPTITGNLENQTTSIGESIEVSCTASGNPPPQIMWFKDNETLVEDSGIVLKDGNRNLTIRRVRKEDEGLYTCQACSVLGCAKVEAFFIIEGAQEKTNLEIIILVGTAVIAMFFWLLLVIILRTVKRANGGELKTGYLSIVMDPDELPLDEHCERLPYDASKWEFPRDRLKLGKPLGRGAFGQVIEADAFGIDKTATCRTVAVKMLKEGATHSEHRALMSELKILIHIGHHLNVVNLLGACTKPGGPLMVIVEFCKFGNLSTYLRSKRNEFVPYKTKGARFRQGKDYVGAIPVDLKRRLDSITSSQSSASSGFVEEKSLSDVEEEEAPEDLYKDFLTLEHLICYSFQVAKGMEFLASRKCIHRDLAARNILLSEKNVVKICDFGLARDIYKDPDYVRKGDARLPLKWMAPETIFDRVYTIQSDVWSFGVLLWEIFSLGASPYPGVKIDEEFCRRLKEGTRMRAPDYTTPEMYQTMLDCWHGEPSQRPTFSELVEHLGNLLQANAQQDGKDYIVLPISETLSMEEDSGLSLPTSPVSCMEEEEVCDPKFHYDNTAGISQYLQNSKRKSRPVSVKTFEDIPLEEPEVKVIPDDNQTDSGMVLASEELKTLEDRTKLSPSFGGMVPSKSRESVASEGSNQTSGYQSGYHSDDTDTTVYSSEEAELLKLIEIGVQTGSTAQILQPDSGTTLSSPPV

Take `COc1ccc2c3c([nH]c2c1)[C@H](CC(C)C)N1C(=O)[C@H](CCC(=O)OC(C)(C)C)NC(=O)[C@@H]1C3` [Ko-143, reference compound]: the effect on tubulogenesis entry in data set [1] (result in words) is listed as “no effect”.
With `Cc1[nH]c(/C=C2\C(=O)Nc3cc(Cl)c(N=[N+]=[N-])cc32)c(C)c1C(=O)N[C@H]1CCN(C(=O)N(C)C)C1` [5-defluoro-5-azido-6-chloro-vorolanib], the IC50 in data set [2] (setting [5]) is 0.921 nM; in data set [2] (setting [6]), 57.8 nM; in data set [1] (cold white LED light 10 min, 500 nM of Ko-143 in the medium, read-out: IC50 Light), 173 nM; in data set [1] (Homo sapiens, HRMEC, 10 min, cold white LED light 10 min, 500 nM of Ko-143 in the medium, read-out: IC50 Light), 135 nM. The Dark/Light is given as 62.80 in data set [2] and 3.97 in data set [1] (500 nM of Ko-143).
Consider `Cc1[nH]c(/C=C2\C(=O)Nc3cc(N=[N+]=[N-])ccc32)c(C)c1C(=O)N[C@H]1CCN(C(=O)N(C)C)C1` [5-defluoro-6-azido-vorolanib (7), 5-defluoro-6-azido-vorolanib], for which the values for the IC50 in data set [2] (setting [5]) and in data set [2] (setting [6]) were 10.1 nM and 53.4 nM, respectively. For the same compound, in data set [2], the Dark/Light amounted to 5.29.
In the case of `CCN(CC)CCNC(=O)c1c(C)[nH]c(/C=C2\C(=O)Nc3cc(N=[N+]=[N-])c(F)cc32)c1C` [6-azido-sunitinib (3), 6-azido-sunitinib], the IC50 in data set [2] (setting [5]) worked out at 11.7 nM; in data set [2] (setting [6]) it was 53.2 nM; in data set [1] (setting [7]), 87 nM; in data set [1] (setting [8]), 228 nM. For the same compound, the Dark/Light in data set [2] was 4.57; in data set [1] (no Ko-143) it was 2.62.
Turning to `CCN(CC)CCNC(=O)c1c(C)[nH]c(/C=C2\C(=O)Nc3cc(N=[N+]=[N-])ccc32)c1C` [5-defluoro-6-azido-sunitinib (2), 5-defluoro-6-azido-sunitinib], the IC50 in data set [2] (setting [5]) turned out to be 9.3 nM; in data set [2] (setting [6]), 93.7 nM; in data set [1] (setting [7]) it was 432 nM; in data set [1] (setting [8]) it was 1090 nM. The values for the Dark/Light in data set [2] and in data set [1] (no Ko-143) were 10.074 and 2.52, respectively.
For `CCN(CC)CCNC(=O)c1c(C)[nH]c(/C=C2\C(=O)Nc3cc(F)c(N=[N+]=[N-])cc32)c1C` [5-defluoro-5-azido-6-fluoro-sunitinib], the figures for the IC50 in data set [2] (setting [5]) and in data set [2] (setting [6]) were 8.86 nM and 69 nM, respectively. For the same compound, the Dark/Light in data set [2] is recorded as 7.79.
On to `CCN(CC)CCNC(=O)c1c(C)[nH]c(/C=C2\C(=O)Nc3ccc(N=[N+]=[N-])cc32)c1C` [5-defluoro-5-azido-sunitinib (1), 5-defluoro-5-azido-sunitinib], for which the IC50 in data set [2] (setting [5]) came to 36.8 nM; in data set [2] (setting [6]), 263 nM; in data set [1] (setting [7]) it was 951 nM; in data set [1] (setting [8]) it was 3540 nM. The Dark/Light is 7.136 in data set [2] and 3.72 in data set [1] (no Ko-143).
For `CCN(CC)CCNC(=O)c1c(C)[nH]c(/C=C2\C(=O)Nc3cc(Cl)c(N=[N+]=[N-])cc32)c1C` [5-defluoro-5-azido-6-chloro-sunitinib], the IC50 in data set [2] (setting [5]) turned out to be 2.23 nM; in data set [2] (setting [6]), 40.4 nM; in data set [1] (setting [7]), 168 nM; in data set [1] (setting [8]), 655 nM. For the same compound, the Dark/Light is 18.12 in data set [2] and 3.48 in data set [1] (no Ko-143).
For `Cc1[nH]c(/C=C2\C(=O)Nc3ccc(F)cc32)c(C)c1C(=O)N[C@H]1CCN(C(=O)N(C)C)C1` [vorolanib], in data set [3], the “efficacy against neovascular AMD” value is listed as “effective”. In addition, the adverse effects entry in data set [4] was “hepatobiliary and gastrointestinal adverse effects; also recorded: intolerable levels of side effects”.
`CCN(CC)CCNC(=O)c1c(C)[nH]c(/C=C2\C(=O)Nc3cc(Br)c(N=[N+]=[N-])cc32)c1C` [5-defluoro-5-azido-6-bromo-sunitinib (6), 5-defluoro-5-azido-6-bromo-sunitinib]: the IC50 in data set [2] (setting [5]) is 3.5 nM; in data set [2] (setting [6]), 60.4 nM and 60.7 nM. Besides, in data set [2], the Dark/Light was determined as 17.25.
